Measured values reported in patent US5476840A, “New hexapeptidic derivatives, preparation process and use as medicaments of these new derivatives” (Roussel Uclaf, priority 1992, dated 1995).
Ends that are not written are not given here.

Key:
demedullated rat = experiment: Vasoconstrictive activity in a demedullated rat (increase in mean arterial pressure); assay type: in vivo; conditions: dose 10 mg/kg, venous route, demedullated male Sprague-Dawley rat
Experimental: Male Sprague-Dawley rats are anaesthetized with Nembutal (60 mg/kg) injected by intraperitoneal route. The animals are then demedullated, put under assisted respiration (1 ml/100 g--50 insufflations per minute), then the vagus nerves are sectioned. A carotid artery is catheterized to record the arterial pressure and the products to be studied are injected into the pudendal vein.
The animals receive endothelin 1 or the compound to be tested as cumulative injections by venous route, the administrations being spaced 2 minutes apart.
The increase in mean arterial pressure (MAP) induced by each compound is measured and expressed as a percentage variation relative to the initial pressure.

[1] = test system: pressure response to endothelin; experiment: Antagonism of the effects of endothelin in a demedullated rat (inhibition of the pressure response to endothelin 1); assay type: in vivo
Experimental: Male Sprague-Dawley rats are anaesthetized with Nembutal (60 mg/kg) injected by intraperitoneal route. The animals are then demedullated, put under assisted respiration (1 ml/100 g--50 insufflations per minute), then the vagus nerves are sectioned. A carotid artery is catheterized to record the arterial pressure and the products to be studied are injected into the pudendal vein. Ten minutes after the intravenous injection of the solvent or compounds to be tested, the animals receive administrations of endothelin 1 in a cumulative manner (1, 3, 10 and 30 μg/kg i.v.) every 2 minutes. The antagonistic activity is expressed as a percentage of the inhibition of the pressure response to endothelin administered alone, at doses of 3 and 10 μg/kg.

Substance: HAAIIW [Example 1]
- % increase of MAP (demedullated rat): +8%
- Percent change in pressure response to endothelin (negative = reduction) ([1]; dose 5 μg/kg i.v., 3 μg endothelin): -27
- Percent change in pressure response to endothelin (negative = reduction) ([1]; dose 5 μg/kg i.v., 10 μg endothelin): -19
- Percent change in pressure response to endothelin (negative = reduction) ([1]; dose 10 μg/kg i.v., 3 μg endothelin): -60
- Percent change in pressure response to endothelin (negative = reduction) ([1]; dose 10 μg/kg i.v., 10 μg endothelin): -33
